Laboratory results: patent publication US4968672A, “Adenosine receptor prodrugs” (priority 1987, dated 1990)
Counter-ions that a name gives are not always drawn. Like-named read-outs stand apart in the source and are kept apart here.

Legend:
A1 adenosine receptors = target: T1, A1 adenosine receptors (Rattus norvegicus, UniProt P25099); test: membrane binding assay at A1 adenosine receptors (Tables 1 and 2)
T1 construct: rat cerebral cortex membranes; from tissue; host or cells: rat cerebral cortex membranes
T1 sequence (P25099 1-326): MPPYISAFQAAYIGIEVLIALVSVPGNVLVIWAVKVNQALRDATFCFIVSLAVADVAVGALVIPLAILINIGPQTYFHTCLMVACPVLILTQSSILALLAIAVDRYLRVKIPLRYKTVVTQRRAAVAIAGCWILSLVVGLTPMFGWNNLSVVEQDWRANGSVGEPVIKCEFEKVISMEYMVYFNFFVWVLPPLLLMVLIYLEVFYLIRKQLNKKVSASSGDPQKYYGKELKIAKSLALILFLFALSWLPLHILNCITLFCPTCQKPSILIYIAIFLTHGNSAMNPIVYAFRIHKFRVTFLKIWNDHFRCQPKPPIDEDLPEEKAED
Text: Table 2 lists prodrugs (including Routes A and B of FIG. 2) and chemical intermediates, based on xanthine and adenosine functionalized congener and the method of synthesis. The potency of each compound at A1 adenosine receptors is indicated by the Ki (inverse relationship to potency) in a membrane binding assay.

A2 receptor = target: T2, A2 receptor (Homo sapiens, UniProt P29274); test: antagonism of NECA-induced stimulation of adenylate cyclase activity in human platelet membranes; format: biochemical; conditions: antagonism of NECA-stimulated adenylate cyclase, human platelet membranes; means with 95% confidence limits from 3 experiments; read-out: A2 receptor KB
T2 construct: human platetlet membranes; from tissue; host or cells: human platelet membranes
T2 sequence (P29274 whole entry): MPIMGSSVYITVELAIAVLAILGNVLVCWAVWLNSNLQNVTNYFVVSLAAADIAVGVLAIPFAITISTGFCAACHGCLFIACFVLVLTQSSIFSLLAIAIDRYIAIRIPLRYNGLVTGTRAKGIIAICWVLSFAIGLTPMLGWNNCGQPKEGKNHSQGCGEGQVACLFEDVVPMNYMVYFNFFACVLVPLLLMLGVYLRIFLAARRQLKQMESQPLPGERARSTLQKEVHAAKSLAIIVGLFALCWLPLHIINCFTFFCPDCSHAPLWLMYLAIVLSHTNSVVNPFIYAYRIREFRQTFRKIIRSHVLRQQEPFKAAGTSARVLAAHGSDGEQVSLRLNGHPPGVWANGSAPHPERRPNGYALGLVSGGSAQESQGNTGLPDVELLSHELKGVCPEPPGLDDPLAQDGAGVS
Protocol: Measurements of the potencies of the xanthines as antagonists of NECA-induced stimulation of adenylate cyclase activity in human platetlet membranes and as inhibitors of [^3 H]PIA binding to rat cerebral cortex membranes were carried out as reported previously.

[1] = Table 1, prodrug before cleavage, read-out: Ki(nM) at A1 Before Cleavage
[2] = Table 1, liberated product, read-out: Ki(nM) at A1 After Cleavage

Row | SMILES | Ki (A1 adenosine receptors; Table 2, read-out: Ki (A1(nM))) [nM] | other results
1 | CCCn1c(=O)c2[nH]c(-c3ccc(OCC(=O)NCCNC(=O)CC[C@H](NC(=O)OC(C)(C)C)C(=O)OCc4ccccc4)cc3)nc2n(CCC)c1=O [BocGlu(XAC)OBzl, Boc-glutamyl(gamma-XAC)-alpha-benzyl ester] | 18 | –
2 | CCn1c(=O)c2[nH]c(-c3ccccc3)nc2n(CC)c1=O [Compound 51b] | – | Kb (A2 receptor): 210 nM
3 | CCCn1c(=O)c2[nH]c(-c3ccc(OCC(=O)NCCNC(=O)[C@H](CC(C)C)NC(C)=O)cc3)nc2n(CCC)c1=O [AcLeuXAC] | 20 | –
4 | CCCn1c(=O)c2[nH]c(-c3ccc(OCC(=O)NCCNC(=O)CC[C@H](N)C(=O)O)cc3)nc2n(CCC)c1=O [HGlu(XAC)OH] | 17 | –
5 | CCCCC/C=C\C/C=C\CCCCCCCC(=O)NCCNC(=O)COc1ccc(-c2nc3c([nH]2)c(=O)n(CCC)c(=O)n3CCC)cc1 [N-linoleyl-XAC] | 35 | –
6 | CCCn1c(=O)c2[nH]c(-c3ccc(OCC(=O)NCCNC(=O)[C@H](CC(=O)OCc4ccccc4)NC(=O)OC(C)(C)C)cc3)nc2n(CCC)c1=O [BocAsp(OBzl)XAC] | 150 | Ki (A1 adenosine receptors; [1]): 150 nM
7 | CCCCCCCCCCCCCCCCCC(=O)NCCNC(=O)Cc1ccc(NC(=O)Cc2ccc(Nc3ncnc4c3ncn4[C@@H]3O[C@H](CO)[C@@H](O)[C@H]3O)cc2)cc1 [N-stearoyl-ADAC, Stearoyl-ADAC] | 1 | –
8 | CCCn1c(=O)c2[nH]c(-c3ccc(OCC(=O)NCCNC(=O)[C@@H](NC(=O)[C@H](Cc4ccc(O)cc4)NC(=O)OCc4ccccc4)C(C)C)cc3)nc2n(CCC)c1=O [CbzTyrValXAC] | 3.7 | –
9 | CCCn1c(=O)c2c(nc(-c3ccc(OCC(=O)NCCNC(=O)OCc4ccccc4)cc3)n2Cc2ccccc2)n(CCC)c1=O [NCbz(N7-benzyl)XAC] | 95 | –
10 | CCCCCCCCCCCCCC(=O)OCC(COC(=O)CCCCCCCCCCCCC)OC(=O)COc1ccc(-c2nc3c([nH]2)c(=O)n(CCC)c(=O)n3CCC)cc1 [1,3-dimyristin-(2-XCC), 1,3-Dimyristin-2-XCC] | 104 ± 7.7 | Ki (A1 adenosine receptors; [1]): 104 nM
11 | CCCn1c(=O)c2[nH]c(-c3ccc(OCC(=O)NCCNC(=O)c4ccc[n+](C)c4)cc3)nc2n(CCC)c1=O [Compound 43] | 40 | Ki (A1 adenosine receptors; [2]): 10 nM; Ki (A1 adenosine receptors; [1]): 10 nM
12 | CCCn1c(=O)c2[nH]c(-c3ccc(OCC(=O)NCCOC(C)=O)cc3)nc2n(CCC)c1=O [Compound 40] | 12 | –
13 | CCCCCCCC/C=C\CCCCCCCC(=O)OCC(COP(=O)(O)OCCNC(=O)COc1ccc(-c2nc3c([nH]2)c(=O)n(CCC)c(=O)n3CCC)cc1)OC(=O)CCCCCCC/C=C\CCCCCCCC (centres unmarked) [Compound 32, XCC-phosphatidylethanolamine] | 24 ± 1 | potency at adenosine A1 receptors relative to compound 33 / to hydrolysis product (A1 adenosine receptors): of comparable potency
14 | CCCn1c(=O)c2[nH]c(-c3ccc(OCC(=O)NCCNC(=O)CNC(=O)CNC(=O)CNC(=O)OCc4ccccc4)cc3)nc2n(CCC)c1=O [CbzGlyGlyGlyXAC] | 10 | –
15 | CCCn1c(=O)c2[nH]c(-c3ccc(OCC(=O)NCCNC(=O)[C@@H](N)C(C)C)cc3)nc2n(CCC)c1=O [HValXAC] | – | Ki (A1 adenosine receptors; [2]): 3 nM
16 | CCCCC/C=C\C/C=C\CCCCCCCC(=O)NCCNC(=O)Cc1ccc(NC(=O)Cc2ccc(Nc3ncnc4c3ncn4[C@@H]3O[C@H](CO)[C@@H](O)[C@H]3O)cc2)cc1 [N-linoleyl-ADAC] | 0.5 | –
17 | CCCn1c(=O)c2[nH]c(-c3ccc(OCC(=O)NCCNC(=O)[C@@H](Cc4ccc([N+](=O)[O-])cc4)NC(=O)OC(C)(C)C)cc3)nc2n(CCC)c1=O [BocD(p-NO2)PheXAC] | 89 | –
18 | CCCn1c(=O)c2[nH]c(-c3ccc(OCC(=O)NCCNC(=O)CNC(=O)CNC(=O)OCc4ccccc4)cc3)nc2n(CCC)c1=O [CbzGlyGlyXAC] | 3.1 | –
19 | CCCCCCCCCCCCCC(=O)NCCNC(=O)COc1ccc(-c2nc3c([nH]2)c(=O)n(CCC)c(=O)n3CCC)cc1 [drawing 10] | – | Ki (A1 adenosine receptors; [1]): 49 nM
20 | CCCn1c(=O)c2c(nc(-c3ccc(OCC(=O)NCCN)cc3)n2Cc2ccccc2)n(CCC)c1=O [(N7-benzyl)XAC] | 250 | –
21 | CCCn1c(=O)c2[nH]c(-c3ccc(OCC(=O)NCCNC(=O)[C@H](N)Cc4ccc([N+](=O)[O-])cc4)cc3)nc2n(CCC)c1=O [TFA.HD(p-NO2)PheXAC] | 4.3 | –

Row | SMILES | Ki (A1 adenosine receptors; Table 2, read-out: Ki (A1(nM))) [nM] | other results
22 | CCCn1c(=O)c2[nH]c(-c3ccc(OCC(=O)NCCO)cc3)nc2n(CCC)c1=O [Compound 39] | 13 | Ki (A1 adenosine receptors; [2]): 12 nM
23 | CCCCCCCC/C=C/CCCCCCCC(=O)OCCNC(=O)COc1ccc(-c2nc3c([nH]2)c(=O)n(CCC)c(=O)n3CCC)cc1 [O-elaidoyl-XHC, Elaidic ester of hydroxy congener] | 85 | –
24 | CCCCCCCC/C=C/CCCCCCCC(=O)NCCNC(=O)Cc1ccc(NC(=O)Cc2ccc(Nc3ncnc4c3ncn4[C@@H]3O[C@H](CO)[C@@H](O)[C@H]3O)cc2)cc1 [Compound 37] | < 0.3 | potency in the blocked form (A1 adenosine receptors): highly potent in the blocked form
25 | CCCn1c(=O)c2[nH]c(-c3ccc(OCC(=O)NCCNC(=O)CNC(=O)[C@@H](N)Cc4ccc(O)cc4)cc3)nc2n(CCC)c1=O [Compound 22] | – | Ki (A1 adenosine receptors): 5.3 nM
26 | CCCn1c(=O)c2[nH]c(-c3ccc(OCC(=O)NCCNC(=O)CNC(=O)[C@H](Cc4ccc(OC(C)=O)cc4)NC(C)=O)cc3)nc2n(CCC)c1=O [AcTyr(OAc)GlyXAC] | 3.9 | –
27 | CCCn1c(=O)c2[nH]c(-c3ccc(OCC(=O)NCCNC(=O)CC[C@H](N)C(=O)OCc4ccccc4)cc3)nc2n(CCC)c1=O [TFA.HGlu(XAC)OBzl, Glutamic acid (gamma-XAC) alpha benzyl ester trifluoroacetate] | – | Ki (A1 adenosine receptors): 1.8 nM
28 | CCCCCCCCCCCCCCCCCC(=O)OCCNC(=O)COc1ccc(-c2nc3c([nH]2)c(=O)n(CCC)c(=O)n3CCC)cc1 [O-stearoyl-XHC] | 208 | Ki (A1 adenosine receptors; [1]): 208 nM
29 | CCCn1c(=O)c2[nH]c(-c3ccc(OCC(=O)NCCNC(=O)CNC(=O)CNC(=O)CN)cc3)nc2n(CCC)c1=O [HBr.HGlyGlyGlyXAC] | 10 | –
30 | CCCn1c(=O)c2[nH]c(-c3ccc(OCC(=O)NCCNC(=O)OCc4ccccc4)cc3)nc2n(CCC)c1=O [NCbzXAC] | 8 | –
31 | CCCn1c(=O)c2[nH]c(-c3ccc(OCC(=O)NCCNC(=O)[C@H](N)Cc4ccc(N)c(I)c4)cc3)nc2n(CCC)c1=O [TFA.HD(p-NH2 -m-I)PheXAC] | 4 | –
32 | CCCn1c(=O)c2[nH]c(-c3ccc(OCC(=O)NCCNC(=O)[C@@H](NC(=O)[C@@H](N)Cc4ccc(O)cc4)C(C)C)cc3)nc2n(CCC)c1=O [Compound 26] | – | Ki (A1 adenosine receptors): 3 nM
33 | CCCn1c(=O)c2[nH]c(-c3ccc(OCC(=O)NCCNC(=O)CNC(=O)CN)cc3)nc2n(CCC)c1=O [Compound 20] | 3.6 | –
34 | CCCn1c(=O)c2[nH]c(-c3ccc(OCC(=O)NCCNC(=O)[C@@H](Cc4ccc(N)cc4)NC(=O)OC(C)(C)C)cc3)nc2n(CCC)c1=O [Compound 10] | 32 | –
35 | CCCn1c(=O)c2[nH]c(-c3ccc(OCC(=O)NCCNC(=O)CN)cc3)nc2n(CCC)c1=O [HGlyXAC] | – | Ki (A1 adenosine receptors; [2]): 2.1 nM
36 | CCCCCC=CCC=CCCCCCCCC(=O)NC(Cc1ccc(OC(=O)CCCCCCCC=CCC=CCCCCC)cc1)C(=O)NCC(=O)NCCNC(=O)COc1ccc(-c2nc3c([nH]2)c(=O)n(CCC)c(=O)n3CCC)cc1 (centres unmarked) [Linoleyl-Tyr(O-linoleyl)-GlyXAC] | 20 | Ki (A1 adenosine receptors; [1]): 20 nM
37 | CCCn1c(=O)c2[nH]c(-c3ccc(OCC(=O)NCCNC(=O)[C@H](CC(=O)O)NC(=O)OC(C)(C)C)cc3)nc2n(CCC)c1=O [BocAspXAC] | 30 | –
38 | CCCn1c(=O)c2[nH]c(-c3ccc(OCC(=O)NCCNC(=O)CN(CC(=O)O)C(=O)OCC4c5ccccc5-c5ccccc54)cc3)nc2n(CCC)c1=O [HO2 CCH2N(FMOC)CH2 COXAC, 8-[N -Carboxymethyl-N -(9-fluorenylmethyloxycarbonyl) -[[[[[[[[[amino]methyl]carbonyl]amino]ethyl]amino]carbonyl]methyl]-oxy]phenyl]-1,3-dipropylxanthine] | 170 | –
39 | CCCn1c(=O)c2[nH]c(-c3ccc(OCC(=O)NCCNC(=O)[C@@H](NC(=O)[C@H](Cc4ccc(OC(C)=O)cc4)NC(C)=O)C(C)C)cc3)nc2n(CCC)c1=O [AcTyr(OAc)ValXAC] | 5 | Ki (A1 adenosine receptors; [1]): 5 nM
40 | CCCn1c(=O)c2[nH]c(-c3ccc(OCC(=O)NCCNC(=O)[C@H](N)Cc4ccc(N)cc4)cc3)nc2n(CCC)c1=O [TFA.HD(p-NH2)PheXAC] | 2.3 | –
41 | Cn1c(=O)c2[nH]c(-c3ccccc3)nc2n(C)c1=O [Compound 51a] | – | Kb (A2 receptor): 1900 nM
42 | CCCn1c(=O)c2[nH]c(-c3ccc(OCC(=O)NCCNC(=O)CNC(=O)[C@H](Cc4ccc(O)cc4)NC(=O)OCc4ccccc4)cc3)nc2n(CCC)c1=O [CbzTyrGlyXAC] | 4 | Ki (A1 adenosine receptors; [1]): 4 nM
